# Measured values reported in US8940271B2, “Transmucosal administration of drug compositions for treating and preventing disorders in animals” (Abbott Laboratories, priority 2005, dated 2015).
# Like-named read-outs stand apart in the source and are kept apart here.
# Experiments:
# [1] = cited from earlier work
# [2] = pH dependence of dissolution/precipitation of 1% meloxicam; assay type: physicochemical; details: 95:5 water:propylene glycol, concentrated NaOH solution (10 M) added
# [3] = Stability of meloxicam with various solubilizing agents; assay type: physicochemical; details: storage with PVA, Polysorbate 80 or glycerin
# [4] = pH dependence of dissolution/precipitation of 1% meloxicam; assay type: physicochemical
# Procedure: NaOH solution (1 M) was added to the mixture to provide a pH of 10. […] Each solution was then titrated with HCl (aq). […] Similarly, for the 85:15 water:ethanol solvent system, a precipitate formed when the initial apparent pH of 12 was reduced to 7.7 (by addition of HCl).
# [5] = Canine meloxicam absorption study (TMOM vs oral suspension); details: ~0.2 mg/kg, dogs
# Procedure: The average oral suspension dose was 0.20 mg/kg (range 0.19-0.21 mg/kg), and the average dose using transmucosal oral administration was 0.20 mg/kg (range 0.19-0.21 mg/kg). Blood samples were obtained at 0, 5, 30 minutes and 1, 2, 4, 8, 12, 24, 48, and 72 hours post dose.
# The AUC represents the area under the curve or the total amount of drug exposure to the animal following administration by the two different dosage forms. […] Absorption half-life is the amount of time it takes for half of what is left at the site of absorption to be absorbed.
# [6] = Canine anesthetized meloxicam absorption study; details: TMOM
# Procedure: A canine anesthetized absorption study was also carried out. The subjects were anesthetized dogs using minimal pre-anesthetics (isoflurane via an endotracheal tube). The possibility of run off into and absorption by the gastrointestinal tract was prevented by obstructing the esophagus with a Foley catheter. […] Blood samples were taken 0, 5, 30 min, and 1, 2, 4, 8, 12, 24, and 72 hours post-dose. Jugular and cephalic vein samples were obtained 5, 30 min and 4, 8 hours post-dose.
# [7] = Canine anesthetized carprofen absorption study; assay type: in vivo, dog; details: TMOM
# Procedure: A canine anesthetized absorption study was also carried out. […] The carprofen was administered using a transmucosal oral mist. Blood samples were taken 0, 5, 15, 30 min, and 1, 2, 4, 8, 12, and 24 hours post-dose. Jugular and cephalic vein samples were obtained 5, 15 and 30 and 1 and 2 hours post-dose. The target dosage was 2.2 mg/kg (50 mg/mL Rimadyl® injectable solution, 300 μL (15 mg), target dose range 1.9-2.5 mg/kg).
# [8] = Canine carprofen study (caplet, TMOM, subcutaneous injection); assay type: in vivo, dog; details: dogs
# [9] = Clemastine two-way crossover, tablets (stomach tube) vs TMOM, equine
# Procedure: (§2) The target dose for canine subjects was 1 mg/kg (both transmucosal oral administration and tablets). The average tablet dose was 0.96 mg/kg (0.95-0.97 mg/kg) and the average transmucosal oral administration dose was 0.97 mg/kg (0.91-1.06 mg/kg) administered in a spray volume of 400-650 μL using 4-7 pumps of the spray device. The target dose for feline subjects was also 1 mg/kg for both transmucosal oral administration and tablets. The average tablet dose of 1.07 mg/kg (0.89-1.22 mg/kg) and the average transmucosal oral administration dose was 0.95 mg/kg (0.83-1.14 mg/kg) administered in a spray volume of 100-200 μL using 1-2 pumps of the spray device. The target dose for equine subjects was 0.1 mg/kg for both transmucosal oral administration and tablets. The average tablet dose (via stomach tube) was 0.1 mg/kg (0.10-0.11 mg/kg) and the average transmucosal oral administration dose was 0.1 mg/kg (0.09-0.11 mg/kg) administered in a spray volume of 1.4-1.7 mL using 14-17 pumps of the spray device.
# (§3) Blood samples were taken 5, 15, 30 min, 1, 2, 4, 7, 12, 24 hours post dose.
# [10] = in vivo; details: horse, plasma, po, 0.1 mg/kg
# Procedure: as §2, §3
# [11] = equine, oral gavage; Törneke et al. 2003; cited from earlier work
# [12] = in vivo; details: dog, plasma, po, 1 mg/kg
# Procedure: as §2, §3
# [13] = Clemastine two-way crossover, tablets vs TMOM, canine
# Procedure: as §2, §3
# [14] = Canine anesthetized clemastine absorption study; assay type: in vivo, dog; details: anesthetized canine subjects, TMOM
# Procedure: A canine anesthetized absorption study was also carried out.
# [15] = Enrofloxacin feline study, tablets vs TMOM; assay type: in vivo, cat; details: cats
# Procedure: A six cat, two-way crossover study was carried out to compare conventional oral administration (i.e., tablets, Baytril®) with transmucosal oral administration (Baytril® 100; 100 mg of enrofloxacin, L-arginine base 200 mg, n-butyl alcohol 30 mg, benzyl alcohol (as a preservative) 20 mg, and water for injection, q.s.). The target was 5 mg/kg enrofloxacin. The average tablet dose was 4.7 mg/kg and the average TMOM™ dose was 4.9 mg/kg (250-300 μL).
# [16] = dogs
# Procedure: A six dog, two-way crossover experiment was carried out with a target dose of 6.0 mg/kg propofol administered by IV, and 30.0 mg/kg of propofol using transmucosal oral administration.
# [17] = Zolpidem two-way crossover, tablet vs TMOM, canine; details: for absorption time and absorption half-life, TMOM vs tablet / peak plasma concentration (Cmax), TMOM vs tablet: dogs
# Procedure: (§1) A six animal (canine and feline) two-way crossover experiment was carried out in which the subjects were administered a zolpidem tablet or a transmucosal oral mist of a 2.5% zolpidem tartrate solution.
# Canine subjects were administered tablets (average dose 0.55 mg/kg (0.40-0.63 mg/kg)) or a transmucosal oral mist (average dose 0.55 mg/kg (0.42-0.62 mg/kg)). The transmucosal oral mist administration used a spray volume of 200-250 μL in 2-3 pumps of the spray dispenser. By comparison, the average human dose is 0.08-0.17 mg/kg
# [18] = Zolpidem two-way crossover, tablet vs TMOM, feline
# Procedure: as §1
# Feline subjects were administered tablets (average dose 0.74 mg/kg) or a transmucosal oral mist (average dose 0.72 mg/kg). The transmucosal oral mist used a spray volume of 100 μL in 1 pump of the spray dispenser.
# [19] = Milbemycin canine study, tablets vs TMOM; assay type: in vivo, dog; details: dogs
# Procedure: A twelve dog random parallel design was carried out to compare conventional oral administration (i.e., tablets) of Milbemycin with transmucosal oral administration. The tablets used were Interceptor® Flavor Tab®, 5.75 mg and 11.5 mg, providing an average dose of 0.78 mg/kg (0.50-0.99 mg/kg).
# [20] = ~0.5 mg/kg, listed as zolpidem tartrate
compound,measurement,setting,value
"C[C@H]1O[C@@H](O[C@H]2[C@@H](O)C[C@H](O[C@H]3[C@@H](O)C[C@H](O[C@H]4CC[C@@]5(C)[C@H](CC[C@@H]6[C@@H]5C[C@@H](O)[C@]5(C)[C@@H](C7=CC(=O)OC7)CC[C@]65O)C4)O[C@@H]3C)O[C@@H]2C)C[C@H](O)[C@@H]1O [Digoxin, (3β,5β,12β)-3-[(O-2,6-dideoxy-β-D-ribo-hexopyranosyl-(1,4)-O-2,6-dideoxy-β-D-ribo-hexopyranosyl-(1,4)-O-2,6-dideoxy-β-D-ribo-hexopyranosyl)oxy]-12,14-dihydroxy-card-20(22)-enolide]",solubility,[1]; in chloroform,slightly soluble
same,solubility,"[1]; in diluted (e.g., about 50%) alcohol",slightly soluble
same,solubility,[1]; in ether,practically insoluble
same,solubility,[1]; in pyridine,freely soluble
same,solubility,[1]; in water,practically insoluble
"Cc1cnc(NC(=O)C2=C(O)c3ccccc3S(=O)(=O)N2C)s1 [Meloxicam, 4-hydroxy-2-methyl-N-(5-methyl-2-thiazolyl)-2H-1,2-benzothiazine-3-carboxamide-1,1-dioxide]",dissolution of 1% meloxicam,[2],did not dissolve
same,physical stability of the meloxicam solution,[3],greater with PVA than Polysorbate 80 or glycerin
same,pH needed for meloxicam to remain in solution,[4],greater than 8.0
same,pH value of solution causing meloxicam precipitation,[4],less than 8
same,apparent pH at which a precipitate formed,"[4]; 1% meloxicam, 85:15 water:ethanol, initial apparent pH of 12 reduced by HCl",7.7
same,pH at which meloxicam precipitation was observed,"[4]; 1% meloxicam, 100% water, titrated with HCl (aq)",7.2
same,dissolution of 1% meloxicam,"[4]; 80% water/15% EtOH/5% Poloxamer 188, 1 M NaOH added to pH of 10",dissolve
same,dissolution of 1% meloxicam,"[4]; 80% water/15% EtOH/5% Poloxamer 188, acidified to pH of 7 with 0.2 M HCl",precipitate
same,dissolution of 1% meloxicam,"[4]; 80% water/15% EtOH/5% Poloxamer 188, additional 1 M NaOH, pH to 8",redissolved and remained in solution
same,dissolution of 1% meloxicam,"[4]; 80% water/15% EtOH/5% Poloxamer 188, pH of approximately 5.8",did not dissolve completely
same,dissolution of 1% meloxicam,"[4]; 100% water, pH adjusted to 10.1",redissolved
same,dissolution of 1% meloxicam,"[4]; 100% water, pH then reduced to approximately 7.8",no further precipitation
same,bioequivalence to meloxicam administered via an oral suspension,[5],bioequivalent
same,jugular plasma levels as compared to cephalic (systemic) levels,"[6]; anesthetized dogs, at 30 min and 4 h",higher
same,part of the dose in an awake animal delivered transmucosally,[6]; dogs,≤ 90%
CC(C(=O)O)c1ccc2c(c1)[nH]c1ccc(Cl)cc12 (stereo not shown) [carprofen],plasma jugular levels as compared to cephalic levels,"[7]; anesthetized dogs, at 30 min",higher
same,AUC for anesthetized animals relative to awake animals,[7]; dogs,approximately 25%
same,"Cmax and AUC values, caplet vs transmucosal oral administration",[8],very similar
same,Cmax of the subcutaneous injection relative to caplet or transmucosal oral administration,[8],approximately half
same,"Tmax, transmucosal oral administration vs caplet",[8],shorter
same,"absorption and Tmax, subcutaneous injection vs caplet or TMOM",[8],slower absorption and greater time to peak concentrations
same,"absorption, transmucosal oral administration vs caplet",[8],slightly faster
same,lag time,[8]; transmucosal oral administration,no lag time
same,AUC values of the three administration methods,"[8]; caplet, TMOM, subcutaneous injection",all similar
CN1CCC[C@@H]1CCO[C@](C)(c1ccccc1)c1ccc(Cl)cc1 [clemastine],"Tmax, transmucosal oral vs oral gavage of tablets",[9]; 0.1 mg/kg,shorter
same,"bioavailability, transmucosal oral vs oral gavage of tablets",[9]; 0.1 mg/kg,significantly better
same,bioavailability of clemastine in tablet form,[9]; oral gavage,extremely poor
same,half-life,[10],168 min
same,t1/2,[11],2.9 h
same,absorption,cats,well absorbed
same,salivation,feline subjects,mild to severe
same,"AUC values, transmucosal oral vs tablet","feline, ~1 mg/kg, appears to be an artifact of salivation",Lower
same,Tmax,[12],~10 min
same,salivation,[13]; canine subjects,none to moderate
same,"peak (Cmax), transmucosal oral vs tablet","[13]; canine, ~1 mg/kg",much higher
same,"AUC and Cmax, TMOM route vs oral tablet route","[13]; dogs, 1 mg/kg",about an order of magnitude greater
same,absorption via the transmucosal route,[14],readily absorbed
CCN1CCN(c2cc3c(cc2F)c(=O)c(C(=O)O)cn3C2CC2)CC1 [enrofloxacin],lag time in uptake,[15]; TMOM,no lag time
same,jugular plasma concentrations as compared to cephalic concentrations,"[15]; TMOM, 5 min time point",Consistently and significantly higher
same,"AUC, Cmax, Tmax or t1/2 values, transmucosal vs conventional administration",[15]; ~5 mg/kg,essentially no difference
CC(C)c1cccc(C(C)C)c1O [propofol],uptake using transmucosal oral administration,[16],rapid
same,Cmax value compared to IV administration,[16]; TMOM ~30 mg/kg vs IV ~6 mg/kg,somewhat lower
same,part of transmucosally administered dose absorbed,"[16]; TMOM ~30 mg/kg, by 2 hours",Greater than 90%
"Cc1ccc(-c2nc3ccc(C)cn3c2CC(=O)N(C)C)cc1 [zolpidem, N,N-6-trimethyl-2-p-tolyl-imidazo[1,2-a]pyridine-3-acetamide]",vomiting after TMOM administration,"[17]; canine, 12 minutes after administration",One of the canine subjects vomited
same,time within which substantially all of the dose was absorbed,"[17]; canine, TMOM",≤ 12 min
same,"AUC, TMOM vs tablet","[17]; canine, ~0.5 mg/kg",greater
same,"Tmax, TMOM vs tablet","[17]; canine, ~0.5 mg/kg",shorter
same,"absorption time and absorption half-life, TMOM vs tablet",[17]; ~0.5 mg/kg,shorter
same,"peak plasma concentration (Cmax), TMOM vs tablet",[17]; ~0.5 mg/kg,greater
same,"absorption time and absorption half-life, TMOM vs tablet",[17]; [20],significantly lower (shorter)
same,"peak plasma concentration (Cmax), TMOM vs tablet",[17]; [20],higher
same,"absorption time, peak plasma concentration, and total absorption, TMOM vs tablet","[18]; cats, within experimental error",comparable
same,"AUC, TMOM vs tablet","[18]; feline, salivation can lead to reduced absorption",lower
Milbemycin,"variability of plasma concentrations, transmucosal vs tablet",[19],less variable
same,uptake by transmucosal oral administration,[19]; 0.28 mg/kg,very good
same,"bioavailability, transmucosal oral administration vs conventional tablet",[19]; corrected for dosage,similar
